The structures appear in SMILES notation. A value given as a limit tells only on which side of the number the result lay.

The EC50 is the concentration that produces a half-maximal response.

In the test the target is T1, human FPR2 receptors (Homo sapiens, UniProt P25090).
T1 sequence (P25090 1-351): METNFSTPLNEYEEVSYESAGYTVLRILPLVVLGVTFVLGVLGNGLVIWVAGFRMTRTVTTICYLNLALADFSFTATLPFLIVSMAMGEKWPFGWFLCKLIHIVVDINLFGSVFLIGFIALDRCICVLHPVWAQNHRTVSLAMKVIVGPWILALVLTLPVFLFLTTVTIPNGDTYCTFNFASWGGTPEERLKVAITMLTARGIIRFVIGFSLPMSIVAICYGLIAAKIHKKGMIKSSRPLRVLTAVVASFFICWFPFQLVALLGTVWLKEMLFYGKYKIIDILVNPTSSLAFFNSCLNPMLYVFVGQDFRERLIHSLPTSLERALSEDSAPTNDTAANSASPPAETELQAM
The experiment in a line: FPR2 cAMP assay in CHO cells overexpressing human FPR2 (HTRF). In kind it is cell-based. The conditions noted are these: hFPR2 assay; potency bins; read-out: hFPR2 agonist activity EC50. The text has this: N-formyl peptide receptors (FPRs) are a family of chemo attractant receptors that facilitate leukocyte response during inflammation. FPRs belong to the seven-transmembrane G protein-coupled receptor superfamily and are linked to inhibitory G-proteins (Gi). Three family members (FPR1, FPR2 and FPR3) have been identified in humans and are predominantly found in myeloid cells with varied distribution and have also been reported in multiple organs and tissues. After agonist binding, the FPRs activate a multitude of physiological pathways, such as intra cellular signaling transduction, Ca^2+ mobilization and transcription. The family interacts with a diverse set of ligands that includes proteins, polypeptides and fatty acid metabolites which activate both pro-inflammatory and pro-resolution downstream responses. FPR2 and FPR1 Cyclic Adenosine Monophosphate (cAMP) Assays were used to measure the in vitro activity of the compounds disclosed in this application.
FPR2 and FPR1 Cyclic Adenosine Monophosphate (cAMP) Assays. A mixture of forskolin (5 μM final for FPR2 or 10 μM final for FPR1) and IBMX (200 μM final) were added to 384-well Proxiplates (Perkin-Elmer) pre-dotted with test compounds in DMSO (1% final) at final concentrations in the range of 0.020 nM to 100 μM. Chinese Hamster Ovary cells (CHO) overexpressing human FPR1 or human FPR2 receptors were cultured in F-12 (Ham's) medium supplemented with 10% qualified FBS, 250 μg/ml zeocin and 300 μg/ml hygromycin (Life Technologies). Reactions were initiated by adding 2,000 human FPR2 cells per well or 4,000 human FPR1 cells per well in Dulbecco's PBS (with calcium and magnesium) (Life Technologies) supplemented with 0.1% BSA (Perkin-Elmer). The reaction mixtures were incubated for 30 min at room temperature. The level of intracellular cAMP was determined using the HTRF HiRange cAMP assay reagent kit (Cisbio) according to manufacturer's instruction. Solutions of cryptate conjugated anti-cAMP and d2 flurorophore-labelled cAMP were made in a supplied lysis buffer separately. Upon completion of the reaction, the cells were lysed with equal volume of the d2-cAMP solution and anti-cAMP solution. After a 1-h room temperature incubation, time-resolved fluorescence intensity was measured using the Envision (Perkin-Elmer) at 400 nm excitation and dual emission at 590 nm and 665 nm. A calibration curve was constructed with an external cAMP standard at concentrations ranging from 1 μM to 0.1 pM by plotting the fluorescent intensity ratio from 665 nm emission to the intensity from the 590 nm emission against cAMP concentrations. The potency and activity of a compound to inhibit cAMP production was then determined by fitting to a 4-parametric logistic equation from a plot of cAMP level versus compound concentrations.
(In general: Cyclic AMP is a second messenger, typically raised through Gs and lowered through Gi signalling.)
For the compound `COc1cc(F)c([C@@H]2CNC(=O)[C@H]2Nc2nnc(-c3ccc(OC(F)(F)F)cc3)s2)c(F)c1` [Example 30, (3S,4R)-4-(2,6-difluoro-4-methoxyphenyl)-3-({5-[4-(trifluoromethoxy)phenyl]-1,3,4-thiadiazol-2-yl}amino)pyrrolidin-2-one], the EC50 fell in the range of 40 to 150 nM.

On to `COc1cc(F)c([C@@H]2CNC(=O)[C@H]2Nc2nnc(-c3ccc(Cl)nc3)s2)c(F)c1` [Example 31, (3S,4R)-3-{[5-(6-chloropyridin-3-yl)-1,3,4-thiadiazol-2-yl]amino}-4-(2,6-difluoro-4-methoxyphenyl)pyrrolidin-2-one], for which the EC50 is 40 to 150 nM.

On to `COc1cc(F)c([C@@H]2CNC(=O)[C@H]2Nc2nnc(-c3ccc(F)cc3)s2)c(F)c1` [Example 32, (3S,4R)-4-(2,6-difluoro-4-methoxyphenyl)-3-{[5-(4-fluorophenyl)-1,3,4-thiadiazol-2-yl]amino}pyrrolidin-2-one], for which the EC50 was 40 to 150 nM.

For the compound `COc1cc(F)c([C@@H]2CNC(=O)[C@H]2Nc2nnc(-c3ccc(C(F)(F)F)nc3)s2)c(F)c1` [Example 33, (3S,4R)-4-(2,6-difluoro-4-methoxyphenyl)-3-({5-[6-(trifluoromethyl)pyridin-3-yl]-1,3,4-thiadiazol-2-yl}amino)pyrrolidin-2-one], the EC50 lay in the range of 150 to 1000 nM.

For the compound `CCCCOc1ccc(-c2nnc(N[C@@H]3C(=O)NC[C@H]3c3c(F)cc(OC)cc3F)o2)cc1` [Example 34, (3S,4R)-3-{[5-(4-butoxyphenyl)-1,3,4-oxadiazol-2-yl]amino}-4-(2,6-difluoro-4-methoxyphenyl)pyrrolidin-2-one], the EC50 was in the range of 40 to 150 nM.

Regarding `COc1cc(F)c([C@@H]2CNC(=O)[C@H]2Nc2nnc(-c3ccc(Oc4ccccc4)cc3)o2)c(F)c1` [Example 35, (3S,4R)-4-(2,6-difluoro-4-methoxyphenyl)-3-{[5-(4-phenoxyphenyl)-1,3,4-oxadiazol-2-yl]amino}pyrrolidin-2-one], the EC50 was no more than 40 nM.

Take `COc1cc(F)c([C@@H]2CNC(=O)[C@H]2Nc2nnc(-c3ccc(OC(F)F)cc3)o2)c(F)c1` [Example 37, (3S,4R)-4-(2,6-difluoro-4-methoxyphenyl)-3-({5-[4-(difluoromethoxy)phenyl]-1,3,4-oxadiazol-2-yl}amino)pyrrolidin-2-one]: the EC50 lay within 150 to 1000 nM.

`COc1cc(F)c([C@@H]2CNC(=O)[C@H]2Nc2nnc(-c3ccc(C4CC4)cc3)o2)c(F)c1` [Example 38, (3S,4R)-3-{[5-(4-cyclopropylphenyl)-1,3,4-oxadiazol-2-yl]amino}-4-(2,6-difluoro-4-methoxyphenyl)pyrrolidin-2-one]: the EC50 lay within 150 to 1000 nM.

Consider `COc1cc(F)c([C@@H]2CNC(=O)[C@H]2Nc2nnc(-c3ccc(C(C)C)cc3)o2)c(F)c1` [Example 39, (3S,4R)-4-(2,6-difluoro-4-methoxyphenyl)-3-({5-[4-(propan-2-yl)phenyl]-1,3,4-oxadiazol-2-yl}amino)pyrrolidin-2-one], for which the EC50 was in the range of 150 to 1000 nM.

In the case of `COc1cc(F)c([C@@H]2CNC(=O)[C@H]2Nc2nnc(-c3ccc(Oc4ccc(Cl)cc4)cc3)o2)c(F)c1` [Example 40, (3S,4R)-3-({5-[4-(4-chlorophenoxy)phenyl]-1,3,4-oxadiazol-2-yl}amino)-4-(2,6-difluoro-4-methoxyphenyl)pyrrolidin-2-one], the EC50 was no more than 40 nM.

For `COc1cc(F)c([C@@H]2CNC(=O)[C@H]2Nc2nnc(C3CC3c3ccc(Cl)cc3)o2)c(F)c1` (stereo partly drawn) [Example 41, (3S,4R)-3-({5-[2-(4-chlorophenyl)cyclopropyl]-1,3,4-oxadiazol-2-yl}amino)-4-(2,6-difluoro-4-methoxyphenyl)pyrrolidin-2-one], the EC50 was no more than 40 nM.

With `COc1cc(F)c([C@@H]2CNC(=O)[C@H]2Nc2nnc(C3CC3c3cc(F)cc(F)c3)o2)c(F)c1` (stereo partly drawn) [Example 42, (3S,4R)-4-(2,6-difluoro-4-methoxyphenyl)-3-({5-[2-(3,5-difluorophenyl)cyclopropyl]-1,3,4-oxadiazol-2-yl}amino)pyrrolidin-2-one], the EC50 lay in the range of 40 to 150 nM.

As to `COc1cc(F)c([C@@H]2CNC(=O)[C@H]2Nc2nnc(C3CC3c3ccccc3OC)o2)c(F)c1` (stereo partly drawn) [Example 44, (3S,4R)-4-(2,6-difluoro-4-methoxyphenyl)-3-({5-[2-(2-methoxyphenyl)cyclopropyl]-1,3,4-oxadiazol-2-yl}amino)pyrrolidin-2-one], the EC50 was in the range of 40 to 150 nM.

For `COc1cc(F)c([C@@H]2CNC(=O)[C@H]2Nc2nnc(C3CC3c3cccc(Cl)c3)o2)c(F)c1` (stereo partly drawn) [Example 45, (3S,4R)-3-({5-[2-(3-chlorophenyl)cyclopropyl]-1,3,4-oxadiazol-2-yl}amino)-4-(2,6-difluoro-4-methoxyphenyl)pyrrolidin-2-one], the EC50 was no more than 40 nM.

Regarding `COc1cc(F)c([C@@H]2CNC(=O)[C@H]2Nc2nnc(C3CC3c3ccc(Cl)cc3F)o2)c(F)c1` (stereo partly drawn) [Example 46, (3S,4R)-3-({5-[2-(4-chloro-2-fluorophenyl)cyclopropyl]-1,3,4-oxadiazol-2-yl}amino)-4-(2,6-difluoro-4-methoxyphenyl)pyrrolidin-2-one], the EC50 was no more than 40 nM.

Regarding `COc1cc(F)c([C@@H]2CNC(=O)[C@H]2Nc2nnc(-c3ccc(Oc4cc(C#N)ccn4)cc3)o2)c(F)c1` [Example 48, 2-[4-(5-{[(3S,4R)-4-(2,6-difluoro-4-methoxyphenyl)-2-oxopyrrolidin-3-yl]amino}-1,3,4-oxadiazol-2-yl)phenoxy]pyridine-4-carbonitrile], the EC50 lay in the range of 40 to 150 nM.

On to `COc1cc(F)c([C@@H]2CNC(=O)[C@H]2Nc2nnc(-c3ccc(Oc4cnccn4)cc3)o2)c(F)c1` [Example 49, (3S,4R)-4-(2,6-difluoro-4-methoxyphenyl)-3-({5-[4-(pyrazin-2-yloxy)phenyl]-1,3,4-oxadiazol-2-yl}amino)pyrrolidin-2-one], for which the concentration giving a half-maximal response (EC50) lay within 40 to 150 nM.

Turning to `COc1cc(F)c([C@@H]2CNC(=O)[C@H]2Nc2noc3cc(Cl)ccc23)c(F)c1` [Example 50, (3S,4R)-3-[(6-chloro-1,2-benzoxazol-3-yl)amino]-4-(2,6-difluoro-4-methoxyphenyl)pyrrolidin-2-one], the concentration for a half-maximal effect (EC50) was no more than 40 nM.

`COc1cc(F)c([C@@H]2CNC(=O)[C@H]2Nc2nnc(C(=O)NCc3ccc(Cl)cc3)o2)c(F)c1` [Example 53, N-[(4-chlorophenyl)methyl]-5-{[(3S,4R)-4-(2,6-difluoro-4-methoxyphenyl)-2-oxopyrrolidin-3-yl]amino}-1,3,4-oxadiazole-2-carboxamide]: the 50% effective concentration (EC50) fell in the range of 40 to 150 nM.

On to `COc1cc(F)c([C@@H]2CNC(=O)[C@H]2Nc2nnc(C(=O)NCCc3ccc(Cl)cc3)o2)c(F)c1` [Example 54, N-[2-(4-chlorophenyl)ethyl]-5-{[(3S,4R)-4-(2,6-difluoro-4-methoxyphenyl)-2-oxopyrrolidin-3-yl]amino}-1,3,4-oxadiazole-2-carboxamide], for which the EC50 lay in the range of 150 to 1000 nM.

With `COc1cc(F)c([C@@H]2CNC(=O)[C@H]2Nc2nnc(-c3ccc(Oc4ccc(Cl)cn4)cc3)o2)c(F)c1` [Example 55, (3S,4R)-3-[(5-{4-[(5-chloropyridin-2-yl)oxy]phenyl}-1,3,4-oxadiazol-2-yl)amino]-4-(2,6-difluoro-4-methoxyphenyl)pyrrolidin-2-one], the EC50 is no more than 40 nM.

As to `COc1cc(F)c([C@@H]2CNC(=O)[C@H]2Nc2nnc(-c3ccc(Oc4ccc(C#N)cc4)cc3)o2)c(F)c1` [Example 57, 4-[4-(5-{[(3S,4R)-4-(2,6-difluoro-4-methoxyphenyl)-2-oxopyrrolidin-3-yl]amino}-1,3,4-oxadiazol-2-yl)phenoxy]benzonitrile], the EC50 lay within 40 to 150 nM.

For the compound `COc1cc(F)c([C@@H]2CNC(=O)[C@H]2Nc2nnc(-c3ccc(Oc4cnc(Cl)cn4)cc3)o2)c(F)c1` [Example 60, (3S,4R)-3-[(5-{4-[(5-chloropyrazin-2-yl)oxy]phenyl}-1,3,4-oxadiazol-2-yl)amino]-4-(2,6-difluoro-4-methoxyphenyl)pyrrolidin-2-one], the EC50 fell in the range of 40 to 150 nM.

These data come from patent publication US12281108B2, “Pyrrolidinone derivatives as formyl peptide 2 receptor agonists” (BRISTOL-MYERS SQUIBB COMPANY, priority 2018, dated 2025).
